According to US20230058171A1, “NEW ORAL PHARMACEUTICAL COMPOSITION FOR CANCER THERAPY” (BOEHRINGER INGELHEIM INTERNATIONAL GMBH, priority 2021, published 2023):

Tested on: patients with advanced or metastatic solid tumors
Assay: Trial 1403-0001 Phase Ia dose escalation, Arm B (D1 D8 q4w): adverse events
Format: in vivo
Conditions: for AEs leading to Discontinuation: Dose limiting toxicity, % / AEs leading to Discontinuation: Other adverse event, % / Patients with Dose limiting toxicity, % / Serious AEs: Cogenital Anomaly or Birth Defect, % / Serious AEs: Is Life Threatening, % / Serious AEs: Other Medically Important Serious Event, % / Serious AEs: Persists of Signif. Disability/Incapacity, % / Serious AEs: Requires or Prolongs Hospitalization, % / Serious AEs: Results in Death, % / Subjects with AEs leading to Discontinuation of trial drug, % / Subjects with AEs leading to dose reduction of trial drug, % / Subjects with any AE, % / Subjects with investigator defined drug-related AEs, % / Subjects with maximum CTC Grade 1, % / Subjects with maximum CTC Grade 2, % / Subjects with maximum CTC Grade 3, % / Subjects with maximum CTC Grade 4, % / Subjects with maximum CTC Grade 5, % / Subjects with serious AEs, %: Arm B D1 D8 q4w
Experimental: The Phase Ia dose escalation part aimed to define the Maximum Tolerated Dose (MTD) and the Recommended Dose for Expansion (RDE) for the MDM2-antagonist of formula I based on safety and tolerability, pharmacokinetics, pharmacodynamics, and preliminary efficacy. The RDE will be further explored in the Phase Ib expansion part of the trial.
Dose levels evaluated in Arm A were 10, 20, 30, 45, 50, 60, and 80 mg. Dose levels evaluated in Arm B (referring to the dose administered on Day 1 and Day 8) were 5, 10, 15, 20, 30, 45, and 60 mg.

## Cc1c(C(=O)O)ccc2c3n(nc12)[C@@H]1[C@H](C3)N(CC2CC2)[C@@]2(C(=O)Nc3cc(Cl)ccc32)[C@H]1c1cccc(Cl)c1F [MDM2-antagonist of formula I, (2′S,3′S,3a'S,10a'S)-6-chloro-3′-(3-chloro-2-fluorophenyl)-1′-(cyclopropylmethyl)-6′-methyl-2-oxo-1,2,3′,3a′,10′,10a′-hexahydro-1′H-spiro[indole-3,2′-pyrrolo[2′,3′:4,5]pyrrolo[1,2-b]indazole]-7′-carboxylic acid]
5 mg
  AEs leading to Discontinuation: Dose limiting toxicity, %: 0%
  AEs leading to Discontinuation: Other adverse event, %: 0%
  Patients with Dose limiting toxicity, %: 0%
  Serious AEs: Cogenital Anomaly or Birth Defect, %: 0%
  Serious AEs: Is Life Threatening, %: 0%
  Serious AEs: Other Medically Important Serious Event, %: 0%
  Serious AEs: Persists of Signif. Disability/Incapacity, %: 0%
  Serious AEs: Requires or Prolongs Hospitalization, %: 0%
  Serious AEs: Results in Death, %: 0%
  Subjects with AEs leading to Discontinuation of trial drug, %: 0%
  Subjects with AEs leading to dose reduction of trial drug, %: 0%
  Subjects with any AE, %: 100%
  Subjects with investigator defined drug-related AEs, %: 33.3%
  Subjects with maximum CTC Grade 1, %: 66.7%
  Subjects with maximum CTC Grade 2, %: 33.3%
  Subjects with maximum CTC Grade 3, %: 0%
  Subjects with maximum CTC Grade 4, %: 0%
  Subjects with maximum CTC Grade 5, %: 0%
  Subjects with serious AEs, %: 0%
10 mg
  AEs leading to Discontinuation: Dose limiting toxicity, %: 0%
  AEs leading to Discontinuation: Other adverse event, %: 0%
  Patients with Dose limiting toxicity, %: 0%
  Serious AEs: Cogenital Anomaly or Birth Defect, %: 0%
  Serious AEs: Is Life Threatening, %: 0%
  Serious AEs: Other Medically Important Serious Event, %: 0%
  Serious AEs: Persists of Signif. Disability/Incapacity, %: 0%
  Serious AEs: Requires or Prolongs Hospitalization, %: 33.3%
  Serious AEs: Results in Death, %: 0%
  Subjects with AEs leading to Discontinuation of trial drug, %: 0%
  Subjects with AEs leading to dose reduction of trial drug, %: 33.3%
  Subjects with any AE, %: 100%
  Subjects with investigator defined drug-related AEs, %: 100%
  Subjects with maximum CTC Grade 1, %: 0%
  Subjects with maximum CTC Grade 2, %: 33.3%
  Subjects with maximum CTC Grade 3, %: 66.7%
  Subjects with maximum CTC Grade 4, %: 0%
  Subjects with maximum CTC Grade 5, %: 0%
  Subjects with serious AEs, %: 33.3%
15 mg
  AEs leading to Discontinuation: Dose limiting toxicity, %: 0%
  AEs leading to Discontinuation: Other adverse event, %: 0%
  Patients with Dose limiting toxicity, %: 0%
  Serious AEs: Cogenital Anomaly or Birth Defect, %: 0%
  Serious AEs: Is Life Threatening, %: 0%
  Serious AEs: Other Medically Important Serious Event, %: 0%
  Serious AEs: Persists of Signif. Disability/Incapacity, %: 0%
  Serious AEs: Requires or Prolongs Hospitalization, %: 33.3%
  Serious AEs: Results in Death, %: 0%
  Subjects with AEs leading to Discontinuation of trial drug, %: 0%
  Subjects with AEs leading to dose reduction of trial drug, %: 0%
  Subjects with any AE, %: 100%
  Subjects with investigator defined drug-related AEs, %: 100%
  Subjects with maximum CTC Grade 1, %: 33.3%
  Subjects with maximum CTC Grade 2, %: 66.7%
  Subjects with maximum CTC Grade 3, %: 0%
  Subjects with maximum CTC Grade 4, %: 0%
  Subjects with maximum CTC Grade 5, %: 0%
  Subjects with serious AEs, %: 33.3%
20 mg
  AEs leading to Discontinuation: Dose limiting toxicity, %: 0%
  AEs leading to Discontinuation: Other adverse event, %: 0%
  Patients with Dose limiting toxicity, %: 0%
  Serious AEs: Cogenital Anomaly or Birth Defect, %: 0%
  Serious AEs: Is Life Threatening, %: 0%
  Serious AEs: Other Medically Important Serious Event, %: 33.3%
  Serious AEs: Persists of Signif. Disability/Incapacity, %: 0%
  Serious AEs: Requires or Prolongs Hospitalization, %: 33.3%
  Serious AEs: Results in Death, %: 0%
  Subjects with AEs leading to Discontinuation of trial drug, %: 0%
  Subjects with AEs leading to dose reduction of trial drug, %: 0%
  Subjects with any AE, %: 100%
  Subjects with investigator defined drug-related AEs, %: 100%
  Subjects with maximum CTC Grade 1, %: 0%
  Subjects with maximum CTC Grade 2, %: 66.7%
  Subjects with maximum CTC Grade 3, %: 33.3%
  Subjects with maximum CTC Grade 4, %: 0%
  Subjects with maximum CTC Grade 5, %: 0%
  Subjects with serious AEs, %: 33.3%
30 mg
  AEs leading to Discontinuation: Dose limiting toxicity, %: 0%
  AEs leading to Discontinuation: Other adverse event, %: 0%
  Patients with Dose limiting toxicity, %: 0%
  Serious AEs: Cogenital Anomaly or Birth Defect, %: 0%
  Serious AEs: Is Life Threatening, %: 0%
  Serious AEs: Other Medically Important Serious Event, %: 25.0%
  Serious AEs: Persists of Signif. Disability/Incapacity, %: 0%
  Serious AEs: Requires or Prolongs Hospitalization, %: 0%
  Serious AEs: Results in Death, %: 0%
  Subjects with AEs leading to Discontinuation of trial drug, %: 0%
  Subjects with AEs leading to dose reduction of trial drug, %: 50%
  Subjects with any AE, %: 100%
  Subjects with investigator defined drug-related AEs, %: 100%
  Subjects with maximum CTC Grade 1, %: 50.0%
  Subjects with maximum CTC Grade 2, %: 25.0%
  Subjects with maximum CTC Grade 3, %: 0%
  Subjects with maximum CTC Grade 4, %: 25.0%
  Subjects with maximum CTC Grade 5, %: 0%
  Subjects with serious AEs, %: 25.0%
45 mg
  AEs leading to Discontinuation: Dose limiting toxicity, %: 0%
  AEs leading to Discontinuation: Other adverse event, %: 16.7%
  Patients with Dose limiting toxicity, %: 16.7%
  Serious AEs: Cogenital Anomaly or Birth Defect, %: 0%
  Serious AEs: Is Life Threatening, %: 0%
  Serious AEs: Other Medically Important Serious Event, %: 16.7%
  Serious AEs: Persists of Signif. Disability/Incapacity, %: 16.7%
  Serious AEs: Requires or Prolongs Hospitalization, %: 33.3%
  Serious AEs: Results in Death, %: 0%
  Subjects with AEs leading to Discontinuation of trial drug, %: 16.7%
  Subjects with AEs leading to dose reduction of trial drug, %: 16.7%
  Subjects with any AE, %: 100%
  Subjects with investigator defined drug-related AEs, %: 100%
  Subjects with maximum CTC Grade 1, %: 0%
  Subjects with maximum CTC Grade 2, %: 33.3%
  Subjects with maximum CTC Grade 3, %: 50.0%
  Subjects with maximum CTC Grade 4, %: 16.7%
  Subjects with maximum CTC Grade 5, %: 0%
  Subjects with serious AEs, %: 50.0%
60 mg
  AEs leading to Discontinuation: Dose limiting toxicity, %: 0%
  AEs leading to Discontinuation: Other adverse event, %: 0%
  Patients with Dose limiting toxicity, %: 66.7%
  Serious AEs: Cogenital Anomaly or Birth Defect, %: 0%
  Serious AEs: Is Life Threatening, %: 0%
  Serious AEs: Other Medically Important Serious Event, %: 0%
  Serious AEs: Persists of Signif. Disability/Incapacity, %: 0%
  Serious AEs: Requires or Prolongs Hospitalization, %: 66.7%
  Serious AEs: Results in Death, %: 0%
  Subjects with AEs leading to Discontinuation of trial drug, %: 0%
  Subjects with AEs leading to dose reduction of trial drug, %: 66.7%
  Subjects with any AE, %: 100%
  Subjects with investigator defined drug-related AEs, %: 100%
  Subjects with maximum CTC Grade 1, %: 0%
  Subjects with maximum CTC Grade 2, %: 0%
  Subjects with maximum CTC Grade 3, %: 33.3%
  Subjects with maximum CTC Grade 4, %: 66.7%
  Subjects with maximum CTC Grade 5, %: 0%
  Subjects with serious AEs, %: 66.7%
Total
  AEs leading to Discontinuation: Dose limiting toxicity, %: 0%
  AEs leading to Discontinuation: Other adverse event, %: 4.0%
  Patients with Dose limiting toxicity, %: 12.0%
  Serious AEs: Cogenital Anomaly or Birth Defect, %: 0%
  Serious AEs: Is Life Threatening, %: 0%
  Serious AEs: Other Medically Important Serious Event, %: 12.0%
  Serious AEs: Persists of Signif. Disability/Incapacity, %: 4.0%
  Serious AEs: Requires or Prolongs Hospitalization, %: 28.0%
  Serious AEs: Results in Death, %: 0%
  Subjects with AEs leading to Discontinuation of trial drug, %: 4.0%
  Subjects with AEs leading to dose reduction of trial drug, %: 24%
  Subjects with any AE, %: 100%
  Subjects with investigator defined drug-related AEs, %: 92.0%
  Subjects with maximum CTC Grade 1, %: 20.0%
  Subjects with maximum CTC Grade 2, %: 36.0%
  Subjects with maximum CTC Grade 3, %: 28.0%
  Subjects with maximum CTC Grade 4, %: 16.0%
  Subjects with maximum CTC Grade 5, %: 0%
  Subjects with serious AEs, %: 36.0%
Total, listed as Comp. I
  Subjects with AEs leading to dose reduction of trial drug, %: 24.0%
Arm B, all 25 patients
  AE alopecia, patients: 24.0%
  AE decreased appetite, patients: 40.0%
  AE diarrhea, patients: 44.0%
  AE fatigue, patients: 52.0%
  AE nausea, patients: 92.0%
  AE platelet count decreased, patients: 28.0%
  AE vomiting, patients: 64.0%
  Grade 3 AE anemia, patients: 8.0%
  Grade 3 AE platelet count decreased, patients: 8.0%
  Grade 4 AE neutrophil count decreased, patients: 8.0%
  Grade 4 AE platelet count decreased, patients: 8.0%
  SAE platelet count decreased, patients: 8.0%
  dose reduction due to diarrhea, patients: 4.0%
  dose reduction due to neutropenia and/or thrombocytopenia, patients: 20.0%
  drug-related AE alopecia, patients: 24.0%
  drug-related AE decreased appetite, patients: 28.0%
  drug-related AE diarrhea, patients: 32.0%
  drug-related AE fatigue, patients: 40.0%
  drug-related AE nausea, patients: 76.0%
  drug-related AE platelet count decreased, patients: 28.0%
  drug-related AE vomiting, patients: 60.0%
  fatal AEs: No fatal AEs were reported
